This data set has as its target HSD17B13. The following applies: ASO, HepaRG.

The values below come from the OligoGym collection.

After the bases stand the sugars from the 5' end (letter, count) and the backbone: PS all phosphorothioate, else s phosphorothioate and o phosphodiester by linkage. Methylation of C is not given here. e = 2'-O-(2-methoxyethyl) (MOE); k = constrained ethyl (cEt); d = 2'-deoxy (DNA); m = 2'-O-methyl

The sequence TCTTATCCACACCTTC (sugars k3 d10 k3, PS) had a target mRNA inhibition (1 µM) of 31%.
On the same count and under the same terms, in the case of “TGATACACCAATGCAG (sugars kkdddddddddkekek, PS)” it was 62%; in that of GATACATACCACTCTT (sugars k3 d10 k3, PS), 52%; in that of CTAGTGCCAAACCAAT (sugars k3 d10 k3, PS), 49%.
The sequence “AGCCAGTACAGTTCCT (sugars k3 d9 k3 e1, PS)” displayed a target mRNA inhibition (1 µM) of 59%.
The same measure, in the same setting: for TAGAGTTGCACCGTTT (sugars k3 d10 k3, PS) the value was 58%; for “GGTCACCTTTCATAAT (sugars kkdddddddddkekek, PS)”, 52%; for CAAAGTTAATAGGACT (sugars k3 d10 k3, PS), 50%.
On the same count and under the same terms, in the case of ATACGACTTCCTTCTA (sugars k3 d10 k3, PS) it was 44%; in that of GCAAATGTAAGAAGCC (sugars k3 d10 k3, PS), 4%; in that of GACTTGCCTCATTTAG (sugars k3 d10 k3, PS), 69%.
In turn, GCTTAGTTCTTAATTA (sugars k3 d10 k3, PS) came in with a target mRNA inhibition (1 µM) of 28%.
For the sequence TGGATATACTGTCCCA (sugars k3 d10 k3, PS), the target mRNA inhibition (1 µM) turned out to be 24%.
On the same count and under the same terms, in the case of GTGAACCCAGTATTCA (sugars k3 d10 k3, PS) it was 1%.
On the same count and under the same terms, for GTAAACTAAAGTACTT (sugars k3 d10 k3, PS) the value was 0%.
On to TTGTTAAGCAGATGGC (sugars k3 d10 k3, PS), for which the target mRNA inhibition by setting is: (0.02 µM) 1%; (0.078 µM) 1%; (0.313 µM) 30%; (1 µM) 84%; (1.25 µM) 79%; (5 µM) 85%.
“ATGTATCTTATAAGAC (sugars kkdddddddddkekek, PS)” registered a target mRNA inhibition (1 µM) of 18%.
ATGCTAAAAGCTCACC (sugars k3 d10 k3, PS): the target mRNA inhibition (1 µM) was 50%.
Still for that read-out and setting: for GAGAGAACTTATACAA (sugars k3 d10 k3, PS) the value was 37%.
On the same count and under the same terms, for GTAATTAATCTTGTTC (sugars k3 d10 k3, PS) the value was 52%.
As to TGTTATCTCAAGTCAG (sugars k3 d10 k3, PS), the target mRNA inhibition (0.02 µM) stood at 0%; the target mRNA inhibition (0.078 µM) was 0%; the target mRNA inhibition (0.313 µM) was determined as 31%; the target mRNA inhibition (1 µM) amounted to 81%; the target mRNA inhibition (1.25 µM) turned out to be 54%; the target mRNA inhibition (5 µM) amounted to 81%.
Turning to “GAGAUAAAGCTGCCTG (sugars k3 d1 m1 d8 k3, PS)”, the target mRNA inhibition (1 µM) amounted to 39%.
On the same count and under the same terms, in the case of CTAATGAATCATGATT (sugars k3 d10 k3, PS) it was 20%; in that of GGAGCTAGATACTCAA (sugars k3 d10 k3, PS), 42%.
Under “1 µM”, TGAGATGGGCAAGGCC (sugars k3 d10 k3, PS) had a target mRNA inhibition of 53%.
For “TATAGACTGGGTAGGA (sugars kkdddddddddkekek, PS)”, for the setting “1 µM”, the target mRNA inhibition amounted to 38%.
“TCTCTTAGCTGTGCAC (sugars kkdddddddddkekek, PS)”: for the setting “1 µM”, the target mRNA inhibition was determined as 36%.
Under “1 µM”, “AATTGATACACCAATG (sugars k3 d9 k3 e1, PS)” came in with a target mRNA inhibition of 53%.
The same measure, in the same setting: for AGCTTTGCAGCATTGA (sugars k3 d10 k3, PS) the value was 62%; for GTTTCAAAAAGGCCCA (sugars k3 d10 k3, PS), 39%; for TGTCATAAAAATCGCT (sugars k3 d10 k3, PS), 57%.
For CCAGAGCATTCATCAG (sugars k3 d10 k3, PS), the target mRNA inhibition came out at 0% (0.02 µM); 13% (0.078 µM); 41% (0.313 µM); 83% (1 µM); 71% (1.25 µM); 79% (5 µM).
As to CCCGAATTATTTCTTG (sugars k3 d10 k3, PS), under “1 µM”, the target mRNA inhibition stood at 34%.
For TTAGGGAGGTAGCTTT (sugars k3 d10 k3, PS), under “1 µM”, the target mRNA inhibition came to 54%.
In the case of ACTAACCAATTATATG (sugars k3 d10 k3, PS), the target mRNA inhibition (1 µM) came to 6%.
TCAAAGTTTTGGGACC (sugars k3 d10 k3, PS) returned a target mRNA inhibition (1 µM) of 42%.
GTTGATAAAATAGGGT (sugars k3 d10 k3, PS): where the note is “1 µM”, the target mRNA inhibition came out at 42%.
As to TTAGTATTTGGGTGTT (sugars k3 d10 k3, PS), for the setting “1 µM”, the target mRNA inhibition worked out at 29%.
Still for that read-out and setting: in the case of TTGCAATAGTACTATA (sugars k3 d10 k3, PS) it was 3%; in that of GGCCGCACACTGAAGC (sugars k3 d10 k3, PS), 9%.
On the same count and under the same terms, for TTCCTCCACACCGCGC (sugars k3 d10 k3, PS) the value was 47%; for GGCTAGGATTAATCAT (sugars k3 d10 k3, PS), 44%.
For the sequence GTTTATCATGTGCCAC (sugars k3 d10 k3, PS), the target mRNA inhibition worked out at 0% (0.02 µM); 21% (0.078 µM); 44% (0.313 µM); 83% (1 µM); 76% (1.25 µM); 94% (5 µM).
As for “CAAGAGGATAGTCCAT (sugars k3 d1 m1 d8 k3, PS)”, under “1 µM”, the target mRNA inhibition turned out to be 60%.
Take GAGCCTAAAATTGTCT (sugars k3 d10 k3, PS): under “1 µM”, the target mRNA inhibition is 49%.
Regarding CATAACCATAGGACAT (sugars k3 d10 k3, PS), the target mRNA inhibition (1 µM) stood at 41%.
Still for that read-out and setting: for CAGGAAGACAGGTAAT (sugars k3 d10 k3, PS) the value was 60%.
As for AGGATACCTGAAAAGC (sugars k3 d10 k3, PS), the target mRNA inhibition is, setting by setting: (0.02 µM) 13%; (0.078 µM) 23%; (0.313 µM) 54%; (1 µM) 81%; (1.25 µM) 70%; (5 µM) 88%.
For the setting “1 µM”, TAAAATAGGGTGCAGT (sugars k3 d10 k3, PS) gave a target mRNA inhibition of 58%.
For the setting “1 µM”, GTTTAGATTGCATAAG (sugars k3 d10 k3, PS) gave a target mRNA inhibition of 46%.
With TAAGATACCCAGGTTG (sugars k3 d10 k3, PS), the target mRNA inhibition (1 µM) worked out at 39%.
Still for that read-out and setting: in the case of TTATGAAGTTAGTATA (sugars k3 d10 k3, PS) it was 31%; in that of TGACTAATGCAAGATT (sugars k3 d10 k3, PS), 45%; in that of GACAGTAAAATTATGC (sugars k3 d10 k3, PS), 57%.
Turning to CTTAGTTCATTGTGAT (sugars k3 d10 k3, PS), the target mRNA inhibition (1 µM) was found to be 69%.
Regarding “CTATAGTAATCACAAG (sugars kkdddddddddkekek, PS)”, the target mRNA inhibition (1 µM) amounted to 36%.
“GCTCCATAATAATAGC (sugars k3 d1 m1 d8 k3, PS)” yielded a target mRNA inhibition (1 µM) of 16%.
AGTAATTGCATCTGCT (sugars k3 d10 k3, PS) registered a target mRNA inhibition (1 µM) of 42%.
As to ATAACTGAGCTAGACA (sugars k3 d10 k3, PS), the target mRNA inhibition (1 µM) stood at 71%.
The same measure, in the same setting: for GAGAGTAATCAGTTTT (sugars k3 d10 k3, PS) the value was 27%.
TGATTTAGTTGGTAGC (sugars k3 d10 k3, PS): the target mRNA inhibition turned out to be 7% (0.02 µM); 43% (0.078 µM); 73% (0.313 µM); 79% (1 µM); 84% (1.25 µM); 94% (5 µM).
Take GCCAAGCTTTGTGTCA (sugars k3 d10 k3, PS): where the note is “1 µM”, the target mRNA inhibition came out at 64%.
The same measure, in the same setting: for TTGTGTAGTCCTAGGG (sugars k3 d10 k3, PS) the value was 64%; for “GTCTTAAACCTTCCCT (sugars kkdddddddddkekek, PS)”, 28%.
The same measure, in the same setting: for “GCATCAAGACATTCTA (sugars kkdddddddddkekek, PS)” the value was 43%.
The same measure, in the same setting: for ATCAACCTGCACACCA (sugars k3 d10 k3, PS) the value was 63%.
Sequence ACCCTTAACAAACCTC (sugars k3 d10 k3, PS) came in with a target mRNA inhibition (1 µM) of 36%.
As for “GACTGCTGCTAGTGCC (sugars k3 d1 m1 d8 k3, PS)”, the target mRNA inhibition (1 µM) is 60%.
Sequence “TTTCTTATGTAATAGC (sugars k3 d9 k3 e1, PS)” showed a target mRNA inhibition (1 µM) of 60%.
Sequence TCTCTCCATCATCGAT (sugars k3 d10 k3, PS) came in with a target mRNA inhibition (1 µM) of 24%.
Same read-out and setting: for “ATATGTCCAGGTTGAG (sugars k3 d9 k3 e1, PS)” the value was 71%; for “AGGCTGTAAGAGTCAG (sugars kkdddddddddkekek, PS)”, 38%; for TAATACGACTTCCTTC (sugars k3 d10 k3, PS), 32%.
Same read-out and setting: in the case of GGCCTGAAGTTCTGAT (sugars k3 d10 k3, PS) it was 0%.
In turn, ATCAGTTTTCCTCATG (sugars k3 d10 k3, PS) displayed a target mRNA inhibition (1 µM) of 48%.
Same read-out and setting: in the case of “TATGAAGTTAGTATAG (sugars k3 d1 m1 d8 k3, PS)” it was 27%; in that of GTAATGGTAAACTGTA (sugars k3 d10 k3, PS), 70%.
The same measure, in the same setting: in the case of “TGAACAGTCTTAAACC (sugars kkdddddddddkekek, PS)” it was 34%; in that of TACCAATATGGGATGA (sugars k3 d10 k3, PS), 1%.
The same measure, in the same setting: for “ATATGTCCAGGTTGAG (sugars kkdddddddddkekek, PS)” the value was 28%; for GTAGTCTGCCTGCCTA (sugars k3 d10 k3, PS), 68%; for GTCTACCTCTAAGTTA (sugars k3 d10 k3, PS), 3%.
CCCAAGAGTGGCAGGA (sugars k3 d10 k3, PS) came in with a target mRNA inhibition (1 µM) of 29%.
